Assay results from patent US7576071B2, “Antithrombotic compound” (sanofi-aventis, priority 2004, dated 2009).

Tested on: washed human platelets, TRAP-induced aggregation
Experiment: In vitro test for inhibition of human platelet aggregation induced by TRAP
Format: cell-based
Conditions: 5 μM TRAP; washed human platelets; mean of n experiments; entries marked b measured with a Chronolog aggregometer, others with micro plate reader; read-out: Inhibition of TRAP (5 μM)-induced human platelet aggregation (IC50), mean
Text: I.b. In vitro Test for Inhibition of Human Platelet Aggregation Induced by TRAP
Introduction: Addition of trombin receptor agonist peptide (TRAP) to washed human platelets (WPL) in vitro induces platelet aggregation. This aggregation can be determined by measuring the optical density of the WPL. The in vitro test described here is used to analyze the activity of a test compound to inhibit TRAP-induced aggregation of human platelets. A micro plate reader is used to measure the activity of several compounds simultaneously.
An alternative vehicle is 0.9% NaCl in MQ H2O. The compound solution (either in MQ H2O or 0.9% NaCl in MQ H2O) is further diluted in 0.9% NaCl in MQ H2O.
Free-flowing blood (at least 100 mL) is taken from a healthy volunteer and collected in 0.1 volume 3.8% sodium citrate. 2H2O in MQ H2O (w/v). The final concentration is 0.38% sodium citrate. The citrated blood is centrifuged at 1,600 N/kg (160 g) in Hettich Rotanta/AP centrifuge (750 rpm) at RT. After 15 min, centrifugation is discontinued with the brake turned off and the supernatant (=PRP) is collected. • 2. Washed platelets (WPL):
After adding freshly made 1 μL PGI2 solution per ml PRP, the suspension is centrifuged at 13,500 N/kg (1,350 g) for 10 min in a Hettich Rotanta/AP centrifuge (i.e., 2,800 rpm) at RT. After gentle resuspension of the pellet in the same volume of fresh Watson buffer containing 5 ng/mL PGI2, the suspension is centrifuged at 1,350 g (2,800 rpm) for 10 min at RT again. The final platelet pellet is resuspended in Watson buffer to give approx. 400,000±50,000 platelets/[…]. • 3. Watson buffer:
134 mM NaCl, 2.9 mM KCl, 12 mM NaHCO3, 0.34 mM Na2HPO4.2H2O, 1 mM MgCl2.6H2O, 5 mM Glucose and 5 mM HEPES in MQ H2O. The pH is adjusted to 7.4 with 1 M NaOH. • 4. Prostaglandin I2 (Sigma, P6188 powder):
The PGI2 stock solution of 1 mg/mL in 1 M KOH is stored in aliquots of 100 μL at −20° C. Immediately before use, a solution of 5 μg/mL in ice-cold 0.9% NaCl in MQ H2O is prepared. • 5. Human Fibrinogen (Kordia/ERL, art nr: FIB 2 powder):
0.5 g fibrinogen powder is dissolved in 50 mL MQ H2O under vacuum. This stock solution is stored in aliquots of 1 mL at −20° C. Before use, a solution of 0.5 mg/mL in saline is prepared.
Before use, a solution of 50 μM TRAP in 0.9% NaCl in MQ H2O is prepared. For each test, a fresh solution is made.
• 1. Sysmex cell counter model KX-21 • 2. Labsystems iEMS reader MF with a 405 nm filter, an orbital shaker set at 1,000 rpm and a constant temperature of 37° C. Absorptions are measured with the Labsystems iEMS program. • 3. Blood collection system 600 mL with needle, art nr P4203 (NPBI) • 4. 96 wells micro plates (Greiner Labortechnik) flat-bottom
Procedure: The WPL concentration is counted in a Sysmex blood cell counter and the suspension is diluted with Watson buffer to obtain a concentration of 400,000±50,000 plt/μL. Before use, WPL is allowed to stabilize at room temperature for at least 20 min but not longer than 3-4 hours.
TRAP-induced aggregation: 150 μL WPL is pipetted into a well of a micro plate. 15 μL test compound or vehicle and 15 μL fibrinogen solution is added and the micro plate is placed in the micro plate reader at 37° C. Then, the optical density (OD) is measured at 405 nm and after shaking for 2 min in the reader, the OD405 is measured again to verify the stability of the platelets (absence of spontaneous platelet aggregation). 20 μL of 50 μM TRAP is added and the OD405 is kinetically measured every min for 14 min at 405 nm. Between two measurements, the plate is shaking for 40 seconds at 1,000 rpm (FIG. 1). For determination of the IC50 of a test compound, each test compound is investigated in at least 2 experiments using WPL from different volunteers.
Evaluation of response: The mean OD of each concentration (including vehicle) is calculated at t=0 min and t=10 min. The percentage inhibition at each concentration is calculated using the formula: […]

## Methyl O-2,3-di-O-methyl-4-O-<<12-N-<N-(3-keto-benzenesulfonyl)-4-O-{4-(4-piperidinyl)-butyl}-L-tyrosine>-12-aza-3,6,9-trioxa-dodecyl>>-6-O-sulfo-alpha-D-glucopyranosyl-(1->4)-O-2,3-di-O-methyl-beta-D-glucopyranuronosyl-(1->4)-O-2,3,6-tri-O-sulfo-alpha-D-glucopyranosyl-(1->4)-O-2,3-di-O-methyl-alpha-L-idopyranuronosyl-(1>4)-3-O-methyl-2,6-di-O-sulfo-alpha-D-glucopyranoside octakis sodium salt [XIV]
  IC50: 80 nM
